Tests used:
[1] = target: T1, human recombinant adrenergic α2A receptor (Homo sapiens, UniProt P08913); experiment: Adrenergic α2A radioligand binding ([3H]MK-912); details: compound at 1 μM; insect Sf9 cells; read-out: Adrenergic (1 μM) α2A, percent inhibition of specific binding
T1 construct: expressed in transfected cells; host or cells: insect Sf9 cells
T1 sequence (P08913 1-465): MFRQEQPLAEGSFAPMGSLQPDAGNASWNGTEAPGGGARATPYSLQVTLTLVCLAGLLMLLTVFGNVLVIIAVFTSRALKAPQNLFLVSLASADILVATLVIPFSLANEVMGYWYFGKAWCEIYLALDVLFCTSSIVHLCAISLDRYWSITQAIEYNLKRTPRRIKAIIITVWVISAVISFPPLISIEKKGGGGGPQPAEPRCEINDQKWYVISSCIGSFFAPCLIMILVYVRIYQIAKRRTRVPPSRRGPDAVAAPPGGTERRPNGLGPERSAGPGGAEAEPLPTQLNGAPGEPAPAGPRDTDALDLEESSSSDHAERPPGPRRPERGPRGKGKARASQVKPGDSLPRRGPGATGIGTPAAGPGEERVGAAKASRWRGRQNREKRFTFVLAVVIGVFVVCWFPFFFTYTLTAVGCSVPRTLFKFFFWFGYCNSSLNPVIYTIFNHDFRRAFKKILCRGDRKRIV
Method: To evaluate in radioligand binding assays the activity of compounds of the invention, human recombinant adrenergic α2A receptor expressed in insect Sf9 cells (Uhlen S et al. J Pharmacol Exp Ther. 271:1558, 1994) in a modified Tris-HCl buffer (50 mM Tris-HCl, pH 7.4, 12.5 mM MgCl2, 2 mM EDTA) was used. Compounds of invention were incubated with 1 nM [^3H]MK-912 for 60 minutes at 25° C. MK912 is (2S-trans)-1,3,4,5′,6,6′,7,12b-octahydro-1′,3′-dimethyl-spiro[2H-benzofuro[2,3-a]quinolizine-2,4′(1′H)-pyrimidin]-2′(3′H)-one hydrochloride Non-specific binding was estimated in the presence of 10 μM WB-4101 (2-(2,6-Dimethoxyphenoxyethyl)aminomethyl-1,4-benzodioxane hydrochloride). Receptor proteins were filtered and washed, the filters were then counted to determine [^3H]MK-912 specifically bound. Compounds were screened at 1 μM or lower, using 1% DMSO as vehicle. Biochemical assay results are presented as the percent inhibition of specific binding in Table 6.

[2] = target: T2, human recombinant adrenergic α2B receptor (Homo sapiens, UniProt P18089); experiment: Adrenergic α2B radioligand binding ([3H]Rauwolscine); details: compound at 1 μM; CHO-K1 cells; read-out: Adrenergic (1 μM) α2B, percent inhibition of specific binding
T2 construct: expressed in transfected cells; host or cells: CHO-K1 cells
T2 sequence (P18089 1-450): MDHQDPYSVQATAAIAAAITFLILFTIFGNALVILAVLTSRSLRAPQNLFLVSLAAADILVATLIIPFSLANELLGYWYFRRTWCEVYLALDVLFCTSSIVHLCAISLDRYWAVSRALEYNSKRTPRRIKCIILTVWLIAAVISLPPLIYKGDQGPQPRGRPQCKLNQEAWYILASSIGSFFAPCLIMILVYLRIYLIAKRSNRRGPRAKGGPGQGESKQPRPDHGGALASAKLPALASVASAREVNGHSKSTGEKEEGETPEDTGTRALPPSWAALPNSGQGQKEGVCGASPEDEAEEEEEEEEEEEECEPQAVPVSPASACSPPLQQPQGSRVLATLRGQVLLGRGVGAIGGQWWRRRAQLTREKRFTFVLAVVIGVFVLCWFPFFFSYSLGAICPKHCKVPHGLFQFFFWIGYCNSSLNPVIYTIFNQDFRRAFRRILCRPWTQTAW
Method: To evaluate in radioligand binding assays the activity of compounds of the invention, human recombinant adrenergic α2B receptor expressed in Chinese hamster ovary (CHO-K1) cells (Uhlen S et al. Eur. J. Pharmacol. 343(1):93, 1998) in a modified Tris-HCl buffer (50 mM Tris-HCl, pH 7.4, 12.5 mM MgCl2, 1 mM EDTA, 0.2% BSA) was used. Compounds of the invention were incubated with 2.5 nM [3H]Rauwolscine for 60 minutes at 25° C. Non-specific binding was estimated in the presence of 10 μM Prozosin. Receptor proteins were filtered and washed, the filters were then counted to determine [^3H]Rauwolscine specifically bound. Compounds were screened at 1 μM or lower, using 1% DMSO as vehicle. Biochemical assay results are presented as the percent inhibition of specific binding in Table 6.

[3] = target: T3, human recombinant dopamine D2L receptor (Homo sapiens, UniProt P14416); experiment: Dopamine D2L radioligand binding ([3H]Spiperone); details: compound at 1 μM; CHO cells; read-out: Dopamine (1 μM) D2L, percent inhibition of specific binding
T3 construct: expressed in transfected cells; host or cells: CHO cells
Method: To evaluate in radioligand binding assays the activity of compounds of the invention, human recombinant dopamine D2L receptor expressed in Chinese hamster ovary (CHO) cells (Grandy, D. K. et al. Proc. Natl. Acad. Sci. USA. 86:9762, 1989; Hayes, G. et al., Mol. Endocrinol. 6:920, 1992) in a modified Tris-HCl buffer (50 mM Tris-HCl, pH 7.4, 1.4 mM Ascorbic Acid, 0.001% BSA, 150 mM NaCl) was used. Compounds of the invention were incubated with 0.16 nM [^3H]Spiperone for 120 minutes at 25° C. Non-specific binding was estimated in the presence of 10 μM Haloperidol. Receptor proteins were filtered and washed, the filters were then counted to determine [^3H]Spiperone specifically bound. Compounds were screened at 1 μM or lower, using 1% DMSO as vehicle. Biochemical assay results are presented as the percent inhibition of specific binding in Table 6.

[4] = target: T4, human recombinant serotonin (5-Hydroxytryptamine) 5-HT6 receptor (Homo sapiens, UniProt P50406); experiment: Serotonin 5-HT6 radioligand binding ([3H]LSD); details: compound at 1 μM; HeLa cells; read-out: Serotonin (1 μM) 5-HT6, percent inhibition of specific binding
T4 construct: expressed in transfected cells; host or cells: human HeLa cells
Method: To evaluate in radioligand binding assays the activity of compounds of the invention, human recombinant serotonin (5-Hydroxytryptamine) 5-HT6 receptor expressed in human HeLa cells (Monsma, F. J. Jr. et al., Mol. Pharmacol. 43:320, 1993) in a modified Tris-HCl buffer (50 mM Tris-HCl, pH 7.4, 150 mM NaCl, 2 mM Ascorbic Acid, 0.001% BSA) was used. Compounds of the invention were incubated with 1.5 nM [3H]Lysergic acid diethylamide (LSD) for 120 minutes at 37° C. Non-specific binding was estimated in the presence of 5 μM Serotonin (5-HT). Receptor proteins were filtered and washed, the filters were then counted to determine [3H]LSD specifically bound. Compounds were screened at 1 μM or lower, using 1% DMSO as vehicle. Biochemical assay results are presented as the percent inhibition of specific binding in Table 7.

T3 sequence (P14416 whole entry): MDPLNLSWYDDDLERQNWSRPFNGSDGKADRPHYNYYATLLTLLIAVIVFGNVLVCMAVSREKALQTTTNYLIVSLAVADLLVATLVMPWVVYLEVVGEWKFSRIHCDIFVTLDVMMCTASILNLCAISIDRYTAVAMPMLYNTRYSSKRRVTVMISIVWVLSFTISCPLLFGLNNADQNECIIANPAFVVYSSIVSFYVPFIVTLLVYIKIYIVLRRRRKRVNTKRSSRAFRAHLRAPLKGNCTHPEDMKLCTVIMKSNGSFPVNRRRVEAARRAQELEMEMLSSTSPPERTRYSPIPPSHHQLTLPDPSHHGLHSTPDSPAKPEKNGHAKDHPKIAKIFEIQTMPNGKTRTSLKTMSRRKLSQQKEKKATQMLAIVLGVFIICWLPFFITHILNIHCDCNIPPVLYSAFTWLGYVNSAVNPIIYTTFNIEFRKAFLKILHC
T4 sequence (P50406 whole entry): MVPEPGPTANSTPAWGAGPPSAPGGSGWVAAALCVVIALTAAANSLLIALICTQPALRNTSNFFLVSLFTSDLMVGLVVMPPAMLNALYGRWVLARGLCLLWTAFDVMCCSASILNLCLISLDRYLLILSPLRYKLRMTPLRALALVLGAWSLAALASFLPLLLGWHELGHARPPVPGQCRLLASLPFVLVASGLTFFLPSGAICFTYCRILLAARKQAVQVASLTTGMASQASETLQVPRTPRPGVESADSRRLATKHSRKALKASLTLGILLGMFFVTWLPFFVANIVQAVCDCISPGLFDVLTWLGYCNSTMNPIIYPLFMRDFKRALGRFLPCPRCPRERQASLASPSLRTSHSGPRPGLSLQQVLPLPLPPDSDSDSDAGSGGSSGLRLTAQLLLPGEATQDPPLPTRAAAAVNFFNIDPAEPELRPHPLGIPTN

Q: For Cc1ccc2c(c1)c1c(n2CCC(=O)Nc2ccc(F)cc2)CCN(C)C1 [Compound 47, N-(4-fluorophenyl)-3-(1,2,3,4-tetrahydro-2,8-dimethylpyrido[4,3-b]indol-5-yl)propanamide], which inhibition at 1 µM [1] is on record?
A: 73%

Q: And the inhibition at 1 µM [2]?
A: 96%

Q: What about the inhibition at 1 µM [3] of the same compound?
A: -3%

Q: And the inhibition at 1 µM [4]?
A: 63%

Q: Which inhibition at 1 µM [1] does the source give for Cc1ccc2c(c1)c1c(n2CCC(=O)NC(C)C)CCN(C)C1 [Compound 53] here?
A: 54%

Q: And the inhibition at 1 µM [2]?
A: 86%

Q: What about the inhibition at 1 µM [3] of the same compound?
A: -2%

Q: And the inhibition at 1 µM [4]?
A: 22%

Q: Which inhibition at 1 µM [1] does the source give for CN1CCc2c(c3cc(Cl)ccc3n2CCO)C1 [CD89, 2-(8-chloro-2-methyl-3,4-dihydro-1H-pyrido[4,3-b]indol-5(2H)-yl)ethanol] here?
A: 70%

Q: What about the inhibition at 1 µM [2] of the same compound?
A: 100%

Q: What about the inhibition at 1 µM [3] of the same compound?
A: 0%

Q: And the inhibition at 1 µM [4]?
A: 36%

Q: With Cc1ccc2c(c1)c1c(n2CCNC(=O)C2CCCCC2)CCN(C)C1 [Compound 62, N-(2-(1,2,3,4-tetrahydro-2,8-dimethylpyrido[4,3-b]indol-5-yl)ethyl)cyclohexanecarboxamide] as the compound, how does the inhibition at 1 µM [1] read?
A: 40%

Q: And the inhibition at 1 µM [2]?
A: 92%

Q: And the inhibition at 1 µM [3]?
A: 5%

Q: What about the inhibition at 1 µM [4] of the same compound?
A: 19%

Q: Which inhibition at 1 µM [1] does the source give for Cc1ccc2c(c1)c1c(n2CCNC(=O)c2ccc(F)cc2)CCN(C)C1 [Compound 66, 4-fluoro-N-(2-(1,2,3,4-tetrahydro-2,8-dimethylpyrido[4,3-b]indol-5-yl)ethyl)benzamide] here?
A: 70%

Q: What about the inhibition at 1 µM [2] of the same compound?
A: 107%

Q: What about the inhibition at 1 µM [3] of the same compound?
A: -2%

Q: What about the inhibition at 1 µM [4] of the same compound?
A: 35%

Q: What does the source list for Cc1ccc2c(c1)c1c(n2CCNC(=O)C2CCNCC2)CCN(C)C1 [Compound 65, N-(2-(1,2,3,4-tetrahydro-2,8-dimethylpyrido[4,3-b]indol-5-yl)ethyl)piperidine-4-carboxamide]?
A: inhibition at 1 µM [1]: 17%; inhibition at 1 µM [2]: 12%; inhibition at 1 µM [3]: 7%; inhibition at 1 µM [4]: 3%

Q: Which results are given for Cc1ccc2c(c1)c1c(n2CCC(=O)NCC2CCCCC2)CCN(C)C1 [Compound 30, N-(cyclohexylmethyl)-3-(1,2,3,4-tetrahydro-2,8-dimethylpyrido[4,3-b]indol-5-yl)propanamide]?
A: inhibition at 1 µM [1]: 74%; inhibition at 1 µM [2]: 104%; inhibition at 1 µM [3]: 7%; inhibition at 1 µM [4]: 18%

Q: Which inhibition at 1 µM [1] does the source give for CCOC(=O)Cn1c2c(c3cc(Cl)ccc31)CN(C)CC2 [Compound 10, ethyl 2-(8-chloro-1,2,3,4-tetrahydro-2-methylpyrido[4,3-b]indol-5-yl)acetate] here?
A: 40%

Q: And the inhibition at 1 µM [2]?
A: 71%

Q: And the inhibition at 1 µM [3]?
A: 12%

Q: And the inhibition at 1 µM [4]?
A: 69%

Q: How did the inhibition at 1 µM [1] turn out when CCCCOC(=O)Cn1c2c(c3cc(Cl)ccc31)CN(C)CC2 [Compound 52, butyl 2-(8-chloro-1,2,3,4-tetrahydro-2-methylpyrido[4,3-b]indol-5-yl)acetate] was run?
A: 38%

Q: What about the inhibition at 1 µM [2] of the same compound?
A: 89%

Q: And the inhibition at 1 µM [3]?
A: 22%

Q: And the inhibition at 1 µM [4]?
A: 83%

Q: How did the inhibition at 1 µM [1] turn out when CN1CCc2c(c3cc(Cl)ccc3n2CC(=O)NC2CCCC2)C1 [Compound 27, 2-(8-chloro-1,2,3,4-tetrahydro-2-methylpyrido[4,3-b]indol-5-yl)-N-cyclopentylacetamide] was run?
A: 12%

Q: And the inhibition at 1 µM [2]?
A: 35%

Q: And the inhibition at 1 µM [3]?
A: -2%

Q: What about the inhibition at 1 µM [4] of the same compound?
A: 13%

Q: Which inhibition at 1 µM [1] does the source give for CN1CCc2c(c3cc(Cl)ccc3n2CCC(=O)O)C1 [CD55, 3-(8-chloro-1,2,3,4-tetrahydro-2-methylpyrido[4,3-b]indol-5-yl)propanoic acid] here?
A: -2%

Q: And the inhibition at 1 µM [2]?
A: 10%

Q: And the inhibition at 1 µM [3]?
A: 3%

Q: And the inhibition at 1 µM [4]?
A: -3%

Q: How did the inhibition at 1 µM [1] turn out when Cc1ccc2c(c1)c1c(n2CCNC(=O)C2CCCNC2)CCN(C)C1 (centres unmarked) [Compound 9, N-(2-(1,2,3,4-tetrahydro-2,8-dimethylpyrido[4,3-b]indol-5-yl)ethyl)piperidine-3-carboxamide] was run?
A: 20%

Q: And the inhibition at 1 µM [2]?
A: 25%

Q: And the inhibition at 1 µM [3]?
A: 2%

Q: And the inhibition at 1 µM [4]?
A: -5%

Q: For CN1CCc2c(c3cc(Cl)ccc3n2CCC#N)C1 [CD94, 3-(8-chloro-2-methyl-3,4-dihydro-1H-pyrido[4,3-b]indol-5(2H)-yl)propanenitrile], which inhibition at 1 µM [1] is on record?
A: 73%

Q: And the inhibition at 1 µM [2]?
A: 86%

Q: And the inhibition at 1 µM [3]?
A: 1%

Q: And the inhibition at 1 µM [4]?
A: 40%

Q: CC(C)OC(=O)CCn1c2c(c3cc(Cl)ccc31)CN(C)CC2 [Compound 17, isopropyl 3-(8-chloro-1,2,3,4-tetrahydro-2-methylpyrido[4,3-b]indol-5-yl)propanoate] was tested. Which inhibition at 1 µM [1] did it give?
A: 90%

Q: What about the inhibition at 1 µM [2] of the same compound?
A: 106%

Q: And the inhibition at 1 µM [3]?
A: 13%

Q: And the inhibition at 1 µM [4]?
A: 99%

Q: How did the inhibition at 1 µM [1] turn out when Cc1ccc2c(c1)c1c(n2CCN)CCN(C)C1 [CD62, 2-(1,2,3,4-tetrahydro-2,8-dimethylpyrido[4,3-b]indol-5-yl)ethanamine] was run?
A: 42%

Q: And the inhibition at 1 µM [2]?
A: 32%

Q: What about the inhibition at 1 µM [3] of the same compound?
A: 26%

Q: And the inhibition at 1 µM [4]?
A: 12%

Q: Which inhibition at 1 µM [1] does the source give for CN1CCc2c(c3cc(Cl)ccc3n2CC(=O)OCC2CCCCC2)C1 [Compound 14, cyclohexylmethyl 2-(8-chloro-1,2,3,4-tetrahydro-2-methylpyrido[4,3-b]indol-5-yl)acetate] here?
A: 79%

Q: And the inhibition at 1 µM [2]?
A: 103%

Q: What about the inhibition at 1 µM [3] of the same compound?
A: 31%

Q: And the inhibition at 1 µM [4]?
A: 106%

Q: For Cc1ccc2c(c1)c1c(n2CC(=O)O)CCN(C)C1 [CD58, 2-(1,2,3,4-tetrahydro-2,8-dimethylpyrido[4,3-b]indol-5-yl)acetic acid], which inhibition at 1 µM [1] is on record?
A: -7%

Q: And the inhibition at 1 µM [2]?
A: -6%

Q: And the inhibition at 1 µM [3]?
A: 2%

Q: What about the inhibition at 1 µM [4] of the same compound?
A: -5%
